The source of these data is US20070072903A1, “Altering the concentration of intracellular agents by p2x7 receptor modulation” (priority 2003, published 2007).

Data set [1] deals with T1, P2X7 receptor (Mus musculus, UniProt Q9Z1M0).
T1 construct: Murine mesenteric lymph nodes (10^7/ml) were disaggregated in DMEM; from tissue; host or cells: murine mesenteric lymph node lymphocytes (CD4+, CD8+ T cells, B cells)
T1 sequence (Q9Z1M0 1-595): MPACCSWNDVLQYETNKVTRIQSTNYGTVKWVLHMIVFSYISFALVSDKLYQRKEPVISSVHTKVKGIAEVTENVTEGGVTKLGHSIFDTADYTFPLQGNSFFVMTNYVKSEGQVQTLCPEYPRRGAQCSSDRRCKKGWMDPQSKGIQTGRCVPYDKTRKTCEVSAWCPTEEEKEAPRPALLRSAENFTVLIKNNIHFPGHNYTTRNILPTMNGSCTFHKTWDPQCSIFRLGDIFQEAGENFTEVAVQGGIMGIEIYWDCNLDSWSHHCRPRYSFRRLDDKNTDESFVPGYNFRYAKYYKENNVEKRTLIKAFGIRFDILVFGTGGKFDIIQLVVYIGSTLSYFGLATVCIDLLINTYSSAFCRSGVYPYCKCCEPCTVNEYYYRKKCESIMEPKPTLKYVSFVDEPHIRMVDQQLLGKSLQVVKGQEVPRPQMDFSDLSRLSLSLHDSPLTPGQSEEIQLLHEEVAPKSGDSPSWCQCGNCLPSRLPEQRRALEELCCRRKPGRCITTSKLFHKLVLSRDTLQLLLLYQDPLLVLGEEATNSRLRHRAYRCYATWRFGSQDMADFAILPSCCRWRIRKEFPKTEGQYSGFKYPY
Kind of data set: PS translocation (annexin V binding) in murine lymphocytes, real-time flow cytometry. It is filed as cell-based. From the text: Murine mesenteric lymph nodes (10^7/ml) were disaggregated in DMEM. To discriminate between different lymphocyte subsets, cells were stained with CD4^APC, CD4^CYCHROME, CD4^PE, CD4^FITC, CD8^APC, CD8^PE, CD8^PERCP, CD8^FITC, B220^APC (Becton Dickinson, Cailf.) antibodies as indicated. The fluorophore on antibodies used to identify CD4^+ and CD8^+T cells was varied in some experiments to avoid overlap between emission spectra of the antibody-conjugated fluorochromes and fluorescent transport substrates. Cells were washed with DMEM and analysed by flow cytometry (CellQuest software—Becton Dickinson). Live cells were gated by eye on the basis of forward scatter and side scatter. […]
To measure drug uptake the following fluorochromes were used (from Molecular Probes, Leiden, Netherlands, unless stated): 0.2 μM BODIPY-taxol (BT), 0.25 μM Rh123, 0.2 μM mitoxantrone (Sigma). PS exposure was monitored simultaneously in the same population of cells by increased binding of annexin V as follows. Cells were equilibrated with annexin V^FITC, annexin V^PE, or annexin V^CY5 (AV—Becton Dickinson, Cailf.) together with propidium iodide (PI) for four minutes, and analysed by flow cytometry on a FACScalibur machine using CellQuest software (Becton Dickinson, Cailf.). […] Cells were monitored for BT uptake or PS exposure continuously in real time for up to 15 minutes, as indicated. […]
In general terms: In flow cytometry, cells or beads pass a laser one at a time.

Data set [2] has as its system breast cancer resistance protein (abcg2). Briefly: Mitoxantrone uptake in mdr1a/b-deficient lymphocytes. Type of data set: cell-based, mouse. The following applies: 0.2 μM mitoxantrone.
The test system of data set [3] is P-gp. Briefly: Rh123 uptake (P-gp activity) in murine lymphocytes, real-time flow cytometry. Type of data set: cell-based, mouse. Conditions: 0.25 μM Rh123, 150 μM BzATP; CD4+, CD8+ and B cells.
Description: Murine mesenteric lymph nodes (10^7/ml) were disaggregated in DMEM. To discriminate between different lymphocyte subsets, cells were stained with CD4^APC, CD4^CYCHROME, CD4^PE, CD4^FITC, CD8^APC, CD8^PE, CD8^PERCP, CD8^FITC, B220^APC (Becton Dickinson, Cailf.) antibodies as indicated. The fluorophore on antibodies used to identify CD4^+ and CD8^+T cells was varied in some experiments to avoid overlap between emission spectra of the antibody-conjugated fluorochromes and fluorescent transport substrates. Cells were washed with DMEM and analysed by flow cytometry (CellQuest software—Becton Dickinson). Live cells were gated by eye on the basis of forward scatter and side scatter. Lymphocytes lacking CD4 and CD8 were defined as B cells.
Lymphocytes were labelled with anti-CD4^CYCHROME and anti-CD8^APC antibodies to discriminate between CD4^+T cells, CD8^+T cells and B cells (CD4^− CD8^−). The lymphocytes were incubated with annexin V^PE, and then 0.25 μM Rh123 and 150 μM BzATP were added sequentially (as indicated in the Figures by arrows).
The test system of data set [4] is plasma membrane permeability. Kind of data set: Propidium uptake after BzATP stimulation (non-specific membrane permeability). Type of data set: cell-based, mouse. Conditions: BzATP-mediated stimulation; data omitted for brevity.
For data set [5], the system named is mdr1a/b-deficient CD4+ and CD8+ T cells. Briefly: BODIPY-taxol uptake in mdr1a/b-deficient T cells. It is filed as cell-based, mouse. The following applies: 175 μM BzATP. The procedure: To measure drug uptake the following fluorochromes were used (from Molecular Probes, Leiden, Netherlands, unless stated): 0.2 μM BODIPY-taxol (BT), 0.25 μM Rh123, 0.2 μM mitoxantrone (Sigma). PS exposure was monitored simultaneously in the same population of cells by increased binding of annexin V as follows. Cells were equilibrated with annexin V^FITC, annexin V^PE, or annexin V^CY5 (AV—Becton Dickinson, Cailf.) together with propidium iodide (PI) for four minutes, and analysed by flow cytometry on a FACScalibur machine using CellQuest software (Becton Dickinson, Cailf.). Baseline fluorescence was established for approximately one minute prior to addition of 150 μM (unless otherwise stated) 2′-3′-O-(4-benzoylbenzoyl)-adenosine 5′-triphosphate (BzATP, Sigma). Cells were monitored for BT uptake or PS exposure continuously in real time for up to 15 minutes, as indicated. Continuous line graphs of changes in annexin V binding and fluorochrome uptake were plotted using FCSPress software (FCSPress.com, Cambridge, UK).
Mitoxantrone (Mx) or Mx plus BzATP, were added as indicted by arrows. Mitoxantrone uptake was measured as an increase in mean (±S.E.) fluorescence (FL-4 channel). […] BODIPY-taxol uptake was measured as an increase in mean (±S.E.) fluorescence (FL-1 channel). […] Only the responses of live cells (i.e. those excluding PI) were subsequently analysed.

Data set [6] deals with P-gp. Kind of data set: BODIPY-taxol uptake in mixed mdr1a/b-deficient and parental CD8+ lymphocytes. Type of data set: cell-based, mouse. The following applies: mdr-deficient versus wild type CD8+ lymphocytes.
Description: Mice were between 6 and 14 weeks of age. When experiments utilised FVB.mdr1a/b^−/− mice, age-matched FVB mice were used.
In a further experiment, lymphocytes from mdr1a/b-deficient or parental mice (mdr1a/b^+/+) were labelled with anti-CD8^PE and anti-CD8^PERCP antibodies, respectively (to discriminate between CD8^+ cells from each mouse during subsequent analysis). […]
The subject of data set [7] is P2X7-HEK 293 cells. Kind of data set: BODIPY-taxol uptake in HEK 293 and P2X7-HEK 293 cells. It is filed as cell-based. Conditions: 150 μM BzATP. As for the experimental part: (§1) NIH 3T3 cells stably transfected with the human MDR1 gene (Ueda et al, 1987 Proc. Natl. Acad. Sci. USA 84, 3004-3008) were a gift from Michael Gottesman (NIH, Bethesda) and were maintained in 1 μg/ml colchicine in Dulbecco's modified Eagle's medium (DMEM—Sigma). HEK 293 cells stably transfected with rP2X7 have been described elsewhere (Wilson et al, 2002 J. Biol. Chem. 277, 34017-34023). Transient transfection of HEK293 cells was performed using polyethyleneimine (Sigma), as described previously (Dixon et al, 2000 Hum. Mol. Genet. 9, 1209-1217). pMDR1-wt, which encodes wild-type P-gp, has also been described previously (Blott et al, 1999 EMBO J. 18, 6800-6808). Expression of the MDR1 gene product, P-gp, on transfected cells was determined by labelling of cells with UIC2^PE in the presence of cyclosporine A (Sigma), as described by Mechetner et al, (1997 Proc. Natl. Acad. Sci. 94, 12908-12913).
(§2) To measure drug uptake the following fluorochromes were used (from Molecular Probes, Leiden, Netherlands, unless stated): 0.2 μM BODIPY-taxol (BT), 0.25 μM Rh123, 0.2 μM mitoxantrone (Sigma). PS exposure was monitored simultaneously in the same population of cells by increased binding of annexin V as follows. […] Cells were monitored for BT uptake or PS exposure continuously in real time for up to 15 minutes, as indicated. […]

For data set [8] the following is noted: injected into the hindpaw of rats at 100 nmol/50 μl; cited from earlier work.
Data set [9] concerns P-gp. Kind of data set: BODIPY-taxol uptake in NIH3T3-MDR and parental NIH3T3 cells, continuous FACS analysis. It is filed as cell-based, mouse. The following applies: 175 μM BzATP, which lack the P2X7 receptor.
Protocol: To measure drug uptake the following fluorochromes were used (from Molecular Probes, Leiden, Netherlands, unless stated): 0.2 μM BODIPY-taxol (BT), 0.25 μM Rh123, 0.2 μM mitoxantrone (Sigma). […] Baseline fluorescence was established for approximately one minute prior to addition of 150 μM (unless otherwise stated) 2′-3′-O-(4-benzoylbenzoyl)-adenosine 5′-triphosphate (BzATP, Sigma). Cells were monitored for BT uptake or PS exposure continuously in real time for up to 15 minutes, as indicated.
BODIPY-taxol (BT) and 175 μM BzATP were added to NIH3T3-MDR and parental NIH3T3 cells at times indicated by arrows. BT uptake was monitored by continuous FACS analysis, as an increase in fluorescence as a function of time.
Data set [10] has as its target T2, P2X7 receptor (Rattus norvegicus, UniProt Q64663).
T2 construct: expressed in transfected cells; transiently co-transfected with MDR1 cDNA
T2 sequence (Q64663 1-595): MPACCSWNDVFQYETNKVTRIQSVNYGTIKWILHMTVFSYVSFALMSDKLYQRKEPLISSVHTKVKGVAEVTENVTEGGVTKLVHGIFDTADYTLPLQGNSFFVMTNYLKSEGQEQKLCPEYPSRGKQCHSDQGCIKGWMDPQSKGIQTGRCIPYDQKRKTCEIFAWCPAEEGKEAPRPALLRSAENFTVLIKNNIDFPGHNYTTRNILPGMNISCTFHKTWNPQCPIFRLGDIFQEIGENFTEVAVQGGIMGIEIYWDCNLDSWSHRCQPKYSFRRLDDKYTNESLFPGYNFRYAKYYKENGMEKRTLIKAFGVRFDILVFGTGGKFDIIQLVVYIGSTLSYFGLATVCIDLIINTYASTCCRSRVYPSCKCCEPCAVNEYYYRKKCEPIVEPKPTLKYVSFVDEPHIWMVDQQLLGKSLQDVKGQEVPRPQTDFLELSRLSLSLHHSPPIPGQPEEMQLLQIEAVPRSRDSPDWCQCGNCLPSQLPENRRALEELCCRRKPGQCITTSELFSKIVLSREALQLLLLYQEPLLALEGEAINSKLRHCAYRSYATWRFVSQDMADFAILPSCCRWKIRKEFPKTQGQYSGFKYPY
Type of data set: cell-based. Conditions: HEK 293 cells expressing both P-gp and P2X7 receptor. As for the experimental part: as §1, §2

The subject of data set [11] is P2X7 receptor. It is filed as cell-based. Conditions: HEK 293 cells expressing P-gp but lacking P2X7 receptors. The procedure:
as §1, §2

Data set [12] deals with P-gp. Kind of data set: BODIPY-taxol uptake in HEK 293 cells with or without P2X7, transiently transfected with MDR1. It is filed as cell-based. Conditions: HEK 293 cells expressing both P-gp and P2X7 receptor.
In data set [13] the test system is P-gp. Briefly: Annexin V trapping of PS after brief BzATP stimulation, BODIPY-taxol uptake in mdr1a/b-deficient and parental lymphocytes. Conditions: BzATP 45 seconds, washed, annexin V for 30 minutes to trap PS in the outer leaflet. It is filed as cell-based, mouse. The procedure:
In this example, the inventors compared the uptake of BODIPY-taxol by parental and mdr1a/b-deficient lymphocytes, briefly stimulated with BzATP either in the continuous presence of annexin V to ‘trap’ PS in the outer leaflet, or with annexin V added only shortly before acquisition. The results are shown in FIGS. 4A-D. The experiments were performed as described below. Lymphocytes from mdr1a/b-deficient or parental mice (mdr1a/b^+/+) were labelled with anti-CD8^PE and anti-CD8^CY antibodies, respectively (to discriminate between CD8^+ cells from each mouse during subsequent analysis). […] BODIPY-taxol uptake was then measured by real-time flow cytometry. Reduced BT uptake indicates enhanced P-gp activity; increased annexin^CY5 binding indicates increased PS translocation from the inner to outer leaflet of the membrane. […] As PS exposure in samples stained with annexin V for four minutes immediately following stimulation (not shown) was equivalent to that in cells incubated for 30 minutes, PS trapping by annexin V appeared to be effectively complete.

In the case of “2′-3′-O-(4-benzoylbenzoyl)-adenosine 5′-triphosphate [BzATP]”, the “PS translocation (annexin V binding)” value in [1] (150 μM BzATP, CD4+ T cells, CD8+ T cells and B cells) was “stimulated PS translocation with the order of responsiveness CD4^+ cells>CD8^+ T cells>>B cells”. The PS translocation entry in data set [1] (mdr1a/b-deficient lymphocytes) is “induced PS translocation”; in data set [10], “induced PS translocation”; in data set [11], “neither induced PS translocation”. The uptake of mitoxantrone entry in [2] was “markedly increased uptake of mitoxantrone”. Besides, the “P-gp activity (uptake of Rh123)” value in [3] is reported as “order of responsiveness was CD4^+>CD8^+>>B cells”. For the same molecule, the “uptake of propidium ions” value in data set [4] is “did not result in an increased uptake of propidium ions”. Moreover, the “rate of uptake of BODIPY-taxol” value in [5] and in data set [7] was “increased the rate of uptake” each time. Moreover, in [6], the “BT uptake following BzATP treatment” value was “rapidly reached equivalence in the mdr-deficient and wild type cells”. The toxicity entry in data set [8] is reported as “non-toxic”. In data set [9], the “P-gp activity (BT accumulation)” value is “did not inhibit P-gp activity and thus did not increase BT accumulation”. Also, the “BODIPY-taxol uptake (P-gp inhibition)” value in data set [12] is “increased BODIPY-taxol uptake”.

B1: annexin V: substance which binds to phosphatidylserine and retains it in the outer leaflet (protein, UniProt P08758 2-320, looked up)
Annexin A5: AQVLRGTVTDFPGFDERADAETLRKAMKGLGTDEESILTLLTSRSNAQRQEISAAFKTLFGRDLLDDLKSELTGKFEKLIVALMKPSRLYDAYELKHALKGAGTNEKVLTEIIASRTPEELRAIKQVYEEEYGSSLEDDVVGDTSGYYQRMLVVLLQANRDPDAGIDEAQVEQDAQALFQAGELKWGTDEEKFITIFGTRSVSHLRKVFDKYMTISGFQIEETIDRETSGNLEQLLLAVVKSIRSIPAYLAETLYYAMKGAGTDDHTLIRVMVSRSEIDLFNIRKEFRKNFATSLYSMIKGDTSGDYKKALLLLCGEDD
In the case of B1, the “restoration of P-gp activity” value in [13] is listed as “prevents the restoration of P-gp activity”.
